Laboratory results as given in article PMC13168289, “Potent acridone antimalarial against all three life stages of Plasmodium” (Nature Communications, 2026).

Assay: cytotoxicity against HepG2 cells
Type: cell-based
Details: human, HepG2 cells; read-out: inhibition IC50 vs HepG2
Experimental: Cytotoxicity was evaluated in human HepG2 liver cells, using an MTT assay. Briefly, HepG2 cells were cultured in complete Dulbecco’s modified Eagle’s medium (DMEM; Gibco-Invitrogen, No. 11995-065) prepared by supplementing DMEM with 10% heat inactivated FBS (Gibco-Invitrogen, No. 16000-036), 100 units/mL penicillin, and 100 µg/mL streptomycin. Cell viability was assessed using trypan blue. Ninety-six-well plates were seeded with 2 × 10^4 cells per well and incubated at 37 °C overnight in a humidified 5% CO2 atmosphere. Test compound plates were prepared with an INTEGRA assist plus station and 96-well plates containing 11 duplicate 2-fold serial dilutions of test compound suspended in DMSO. The diluted test compound was then added to the corresponding well preseeded with HepG2 cells. […] After incubation, 20 µL of a 0.1 mg/mL solution of resazurin diluted in PBS was added to each well, and all plates were subsequently incubated for 3–4 h in an incubator. Absorbance was determined with the Molecular Devices SpectraMax plate reader. Three independent experiments, each in duplicate, were performed, and the IC50 values were determined using GraphPad Prism software (Version 10) using the non-linear regression equation (sigmoidal dose-response, variable slope).

Compound `O=C1C(O)=C([C@H]2CC[C@H](c3ccc(Cl)cc3)CC2)C(=O)c2ccccc21` [ATV, atovaquone] has an IC50 at 24 h of 61.2 µM.
